Target: Nicotinamide phosphoribosyltransferase (Homo sapiens, UniProt P43490)
Test: Biochemical Inhibition Assay

Chain of Nicotinamide phosphoribosyltransferase (P43490 whole entry): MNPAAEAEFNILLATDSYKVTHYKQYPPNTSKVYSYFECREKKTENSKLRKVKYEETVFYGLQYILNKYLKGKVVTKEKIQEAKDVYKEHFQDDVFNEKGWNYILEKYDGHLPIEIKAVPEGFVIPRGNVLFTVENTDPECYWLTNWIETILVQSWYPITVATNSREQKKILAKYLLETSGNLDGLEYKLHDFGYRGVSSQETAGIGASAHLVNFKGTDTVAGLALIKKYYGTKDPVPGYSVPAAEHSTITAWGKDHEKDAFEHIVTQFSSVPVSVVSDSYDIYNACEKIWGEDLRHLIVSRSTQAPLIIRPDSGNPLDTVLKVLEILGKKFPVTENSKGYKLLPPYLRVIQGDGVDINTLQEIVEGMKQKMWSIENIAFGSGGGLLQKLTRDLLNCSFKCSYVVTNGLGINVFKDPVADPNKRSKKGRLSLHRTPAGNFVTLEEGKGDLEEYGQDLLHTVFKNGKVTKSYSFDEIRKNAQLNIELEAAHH

C[C@H]1C2C[C@H](C[C@@H]1NS(=O)(=O)c1ccc(NC(=O)NCc3cccnc3)cc1)C2(C)C [US11279687, Compound 86]
IC50: 12 nM

— BindingDB's records for patent US11279687 (Valo Health, 2022)
